Measured values as given in paper PMC3404012, “N-Terminally Glutamate-Substituted Analogue of Gramicidin A as Protonophore and Selective Mitochondrial Uncoupler” (PLoS ONE, 2012).

How the values were obtained:
[1] = test system: rat liver mitochondria (inner mitochondrial membrane potential); experiment: Mitochondrial membrane potential measured by safranine O fluorescence; settings: for series of the uncoupling potency (relative drop in membrane potential, concentration dependence): isolated rat liver mitochondria, measured at 300 s after peptide addition, safranine O; for decrease of mitochondrial membrane potential: isolated rat liver mitochondria 0.4 mg/ml protein, 5 mM succinate + 1 µM rotenone, 5 nM (about 10 nanogram/ml) peptide, safranine O 10 µM, pH 7.4
Method: To assess the effect of gramicidin derivatives on the mitochondrial membrane potential, we assayed the latter with the potential-dependent dye safranine O. The fluorescence of this dye (at a high concentration) is known to drop with increasing the mitochondrial membrane potential and rise upon the addition of protonophores [42], [47].
Control, no other additions. gA, [Glu1]gA, [Glu3]gA, [Lys1]gA, and [Lys3]gA show traces after the addition of 5 nM (i.e. about 10 nanogram/ml) of a corresponding peptide at t = 0 s. Trace “excess [Glu1]gA” was measured with 1 µg/ml peptide. Panel B. Dose dependence of the effect of [Glu1]gA on mitochondrial membrane potential.
Experiments were performed on outbred white male rats (180–200 g) fed ad libitum. […] Rat liver mitochondria were isolated by differential centrifugation [60] in a medium containing 250 mM sucrose, 10 mM MOPS, 1 mM EGTA, and bovine serum albumin (0.1 mg/ml), pH 7.4. The final washing was preformed in the medium of the same composition. Protein concentration was determined using bicinchoninic acid as described in [61].
Safranine O (10 µM) was used as a membrane potential probe [42]. Fluorescence intensity at 580 nm (excitation at 520 nm) was measured with a Panorama Fluorat 02 spectrofluorimeter (Lumex, Russia). The medium for measurements contained 300 mM sucrose, 20 mM MOPS, 0.5 mM EDTA, 0.5 mg/ml BSA, pH 7.4. Mitochondrial protein concentration was 0.4 mg/ml.

[2] = test system: cultured renal tubular cells; experiment: MTT cell viability test; type: cell-based; settings: 24 h
Method: (§1) In subsequent series of experiments, the uncoupling action of [Glu1]gA was tested in rat kidney cell culture loaded with the potential sensitive dye tetramethylrhodamine ethyl ester (TMRE). […] By contrast, the parent gA depolarized mitochondria in cells at substantially higher concentrations starting from 0.1 mg/ml (Fig. 2C). […] In particular, treatment with 50 µg/ml gA caused about 80% cell death, while [Glu1]gA provoked only about 15% cell death. […] The increased effective concentrations of the [Glu1]gA in cell culture with respect to those with isolated mitochondria (Fig. 1) could be attributed to poor peptide permeation through plasma membrane.
Figure 3 Viability of cultured renal cells according to the MTT test after 24 h treatment with appropriate concentration of [Glu1]gA or gA in culture medium without serum. Experiments were performed 2 times in which 10 wells per each concentration were analyzed.
Cell viability was evaluated by a widely used methyl thiazol tetrazolium (MTT) test. […] Then the dye solution was removed, 50 µl DMSO per well was added and absorbance at 540 nm was measured. Experiments were performed twice in which 10 wells per each concentration were analyzed.

[3] = Induction of electrical current across planar BLM with and without liposomes; settings: for effect of liposomes on induction of BLM current: liposomes 1 µg/ml DPhPC, peptide and liposomes at one side, gA 2 nanogram/ml, [Glu1]gA 200 nanogram/ml, 100 mM KCl, 10 mM Tris, 10 mM MES, pH 7.0, 50 mV
Text: The difference in efficacy of gA and [Glu1]gA described here in a variety of systems could be associated with different abilities of the peptides to redistribute between membrane structures and/or their diverse permeability through membranes. To cause a reduction of an electrical potential difference across the inner mitochondrial membrane, peptide molecules must penetrate through the outer membrane in the case of isolated mitochondria, and additionally through the plasma membrane in the case of cells. While encountering with a series of membrane structures, e.g. endosomes, on their way from the plasma to the mitochondrial membrane, peptides may undergo numerous cycles of membrane binding and desorption. To study such a process in a model system, we measured the effect of liposome addition on the time course of the induction of electrical current across a planar BLM by gA and [Glu1]gA. In these experiments we added liposomes and peptides at one side of BLM in order to mimic the addition of the peptides to mitochondria and cells.
Figure 7 Effect of liposomes (1 µg/ml DPhPC) on the induction of electrical current on planar lipid bilayer by gA (2 nanogram/ml, panel A) and [Glu1]gA (200 nanogram/ml, panel B). The peptides and liposomes were added at one side of the membrane. The solution was 100 mM KCl, 10 mM Tris, 10 mM MES, pH = 7.0, BLM voltage was 50 mV.
Planar bilayer lipid membranes (BLM) were formed from a 2% solution of diphytanoylphosphatidylcholine (DPhPC) (Avanti Polar Lipids, Alabaster, AL) in n-decane on a hole in a Teflon partition (0.5-mm diameter) separating two compartments of a cell containing aqueous buffer solutions [64].The electric current (I) was recorded under voltage-clamp conditions. […] The current measured by means of a patch-clamp amplifier (Warner Instruments, Hamden, CT, model BC-525C) was digitized using an NI-DAQmx (National Instruments, Austin, TX) and analyzed with a personal computer with the use of WinWCP Strathclyde Electrophysiology Software designed by J. Dempster (University of Strathclyde, UK).

[4] = test system: rat kidney cell culture (renal tubular epithelium cells); type: cell-based
Method: as §1
Confocal images of cultured renal cells loaded with TMRE in control (A) and after treatment with 0.01 mg/ml [Glu1]gA (B). Diagram (C) presents the mean intensity of TMRE fluorescence through 10 confocal images for each [Glu1]gA (solid bars) or gA (hatched bars) concentration.
Kidneys were excised aseptically from 3–7 day old rats, then homogenized and placed in balanced Hanks solution at pH 7.4. After several washes the dispensed tissue was placed in 0.1% collagenase and incubated for 20–30 min at 37°C. Large pieces were removed, and cells were sedimented by gentle centrifugation (50 g) for 3 min. The pellet was resuspended in DMEM/F-12 1:1 containing 10% fetal calf serum (FCS) and seeded in culture plates and glass-bottom dishes. Cells were cultivated in a CO2 (5%) incubator for 1–2 days before the experiments. The gA or [Glu1]gA solution was added to the cultured epithelial cells to appropriate concentration and incubated for 10 min at 37°C in DMEM/F-12 medium containing 10 mM Hepes-NaOH. Next, cells were incubated with 100 nM TMRE (Invitrogen, USA) or 1 µM Lysotracker Green (Invitrogen, USA) for 30 min followed by washing in DMEM/F-12. Then renal tubular epithelial cells were imaged with an LSM510 inverted confocal microscope (Carl Zeiss Inc., Jena, Germany). Analysis of fluorochrome incorporation was performed in glass-bottom dishes (MatTek Corp., USA) with excitation at 488 and 543 nm and emission collected at 510–530 and 560–590 nm, for Lysotracker and TMRE, correspondingly. To minimize the contribution of photo-induced mitochondria/cell damage to the relative fluorescence intensities, image analysis was performed on the average of the first four scans only. Images were processed using ImageJ software (NIH, Bethesda, MD, USA).

[5] = Single-channel recordings on planar bilayer lipid membrane; settings: DPhPC/decane BLM, 100 mM HCl; for single-channel conductance: from current histograms
Method: Proton channels formed by gA can be observed by measuring electric current across a planar bilayer lipid membrane (BLM), if the experiments are performed in the acidic pH range [19], [20], [26], [50]. Figure 6 presents typical recordings of fluctuations of transmembrane current induced by gA and [Glu1]gA (panels A and D of Fig. 6) which were obtained under the same conditions. The single-channel conductance of [Glu1]gA (150 pS) was close to that of gA (140 pS) as judged from the current histograms (panels B and E), while the single-channel lifetime of the analogue (about 16 ms as estimated from the exponential fit to open channel duration histogram, panel F of Fig. 6) was much shorter than that of gA (116 ms, panel C).
Figure 6 Single-channel recordings (A, D) and the corresponding current histograms (B, E) of gramicidin A ([…], A, B, and C) and [Glu1]gA (2 nanogram/ml, D, E, and F) at a voltage of 100 mV applied to the DPhPC/decane membrane. The solution was 100 mM HCl. (C, F) Open state duration histograms fitted by a single exponential with a time constant of 116 ms (C) and 16 ms (F). The records were filtered at 100 Hz (A, B, and C) or 1000 Hz (D, E, and F).
Planar bilayer lipid membranes (BLM) were formed from a 2% solution of diphytanoylphosphatidylcholine (DPhPC) (Avanti Polar Lipids, Alabaster, AL) in n-decane on a hole in a Teflon partition (0.5-mm diameter) separating two compartments of a cell containing aqueous buffer solutions [64].The electric current (I) was recorded under voltage-clamp conditions. Voltage was applied to BLMs with Ag-AgCl electrodes placed directly into the cell. The current measured by means of a patch-clamp amplifier (Warner Instruments, Hamden, CT, model BC-525C) was digitized using an NI-DAQmx (National Instruments, Austin, TX) and analyzed with a personal computer with the use of WinWCP Strathclyde Electrophysiology Software designed by J. Dempster (University of Strathclyde, UK).

[6] = Dissipation of pH gradient in pyranine-loaded liposomes; settings: 2 µg/ml peptide
Method: Figure 5 Dissipation of the pH gradient on membranes of pyranine-loaded liposomes by gA and [Glu1]gA (both 2 µg/ml). Inner liposomal pH was estimated from pyranine fluorescence intensity measured at 505 nm upon excitation at 455 nm. Nigericin (1 µM) was added at 400–420 s to equilibrate the pH. Control, a record without peptides.
The lumenal pH of the liposomes was assayed with pyranine as described in [11] by a slightly modified procedure of [63]. To prepare pyranine-loaded liposomes, lipids (5 mg egg yolk phosphatidylcholine and 1 mg cholesterol) in a chloroform suspension were dried in a round-bottom flask under a stream of nitrogen. The lipids were then resuspended in buffer (100 mM KCl, 20 mM MES, 20 mM MOPS, 20 mM Tricine titrated with KOH to pH 6.0) containing 0.5 mM pyranine. The suspension was vortexed and then freeze-thawed three times. Unilamellar liposomes were prepared by extrusion through 0.1-µm-pore size Nucleopore polycarbonate membranes using an Avanti Mini-Extruder. The unbound pyranine was then removed by passage through a Sephadex G-50 coarse column equilibrated with the same buffer solution. […] The pH was estimated from the intensities of fluorescence measured at 505 nm upon excitation at 455 nm, as monitored with the Panorama Fluorat 02 spectrofluorimeter. At the end of each recording, 1 µM nigericin was added to dissipate the remaining pH gradient.

[7] = test system: lysosomes of rat kidney cells; experiment: Lysosome integrity and pH gradient by Lysotracker Green; type: cell-based; settings: 0.1 mg/ml peptide, 1 µM Lysotracker Green
Method: In further experiments, we tested the interaction of [Glu1]gA with lysosomes of rat kidney cells by using the dye Lysotracker Green known to accumulate in highly acidic interior of lysosomes. […] Thus, [Glu1]gA appeared to interact specifically with mitochondrial membranes leading to their partial depolarization.
Figure 4 Micrographs of rat kidney cell culture loaded with Lysotracker Green in the absence (A), and in the presence of 0.1 mg/ml (B) of [Glu1]gA.
Kidneys were excised aseptically from 3–7 day old rats, then homogenized and placed in balanced Hanks solution at pH 7.4. After several washes the dispensed tissue was placed in 0.1% collagenase and incubated for 20–30 min at 37°C. Large pieces were removed, and cells were sedimented by gentle centrifugation (50 g) for 3 min. The pellet was resuspended in DMEM/F-12 1:1 containing 10% fetal calf serum (FCS) and seeded in culture plates and glass-bottom dishes. Cells were cultivated in a CO2 (5%) incubator for 1–2 days before the experiments. The gA or [Glu1]gA solution was added to the cultured epithelial cells to appropriate concentration and incubated for 10 min at 37°C in DMEM/F-12 medium containing 10 mM Hepes-NaOH. […] To minimize the contribution of photo-induced mitochondria/cell damage to the relative fluorescence intensities, image analysis was performed on the average of the first four scans only. […]

rat liver mitochondria = experiment: Respiration of isolated mitochondria (Clark-type oxygen electrode); settings: 25°C, pH 7.4, 100 nM = 200 nanogram/ml, data not shown

## HCO-VGELAVVVWLWLWLW-NH(CH2)2OH [[Glu3]gA]
[1]
  series of the uncoupling potency (relative drop in membrane potential, concentration dependence): [Glu1]gA > = gA > [Glu3]gA > [Lys3]gA > [Lys1]gA

## gramicidin A [gA, reference compound]
[2]; 50 µg/ml peptide, DMEM/F12 without serum, 2 experiments, 10 wells per concentration
  cell death (MTT): about 80%
[2]; medium without serum
  concentration limit to which certain toxicity is seen (MTT): ≥ 0.1 µg/mL
[1]
  decrease of mitochondrial membrane potential: most efficient in decreasing the mitochondrial membrane potential
  series of the uncoupling potency (relative drop in membrane potential, concentration dependence): [Glu1]gA > = gA > [Glu3]gA > [Lys3]gA > [Lys1]gA
[3]
  effect of liposomes on induction of BLM current: somewhat slower in the presence of liposomes
[4]; rat kidney cell culture, TMRE
  concentration from which mitochondria in cells are depolarized: ≥ 0.1 mg/mL
[5]; 100 mV
  single-channel lifetime (open state duration, single-exponential time constant): 116 ms
  single-channel conductance: 140 pS

## HCO-KGALAVVVWLWLWLW-NH(CH2)2OH [[Lys1]gA]
[1]
  series of the uncoupling potency (relative drop in membrane potential, concentration dependence): [Glu1]gA > = gA > [Glu3]gA > [Lys3]gA > [Lys1]gA

## HCO-VGKLAVVVWLWLWLW-NH(CH2)2OH [[Lys3]gA]
[1]
  series of the uncoupling potency (relative drop in membrane potential, concentration dependence): [Glu1]gA > = gA > [Glu3]gA > [Lys3]gA > [Lys1]gA

## HCO-EGALAVVVWLWLWLW-NH(CH2)2OH [[Glu1]gA]
[6]
  rate of pH gradient dissipation (enhancement of liposome-entrapped pyranine fluorescence): slower than that provoked by the parent peptide gA
[1]
  decrease of mitochondrial membrane potential: most efficient in decreasing the mitochondrial membrane potential
  series of the uncoupling potency (relative drop in membrane potential, concentration dependence): [Glu1]gA > = gA > [Glu3]gA > [Lys3]gA > [Lys1]gA
[3]
  effect of liposomes on induction of BLM current: accelerated many fold the induction of the current
[3]; planar BLM, peptide added from one side of the membrane
  concentration required to induce current similar to that of gA, one-sided addition: about two orders of magnitude higher
[4]; cells versus isolated mitochondria
  effective concentrations in cells relative to isolated mitochondria: higher in cells than in mitochondria by three orders of magnitude
[4]; mitochondria in cell culture
  depolarizing concentrations in cell culture relative to gA: by an order of magnitude lower than those of gA
[4]; rat kidney cell culture, 10 µg/ml (about 5 µM) peptide, 10 min at 37°C, then 100 nM TMRE 30 min
  decrease in the mitochondrial membrane potential (TMRE fluorescence): more than a two-fold decrease
[4]; rat kidney cells, 0.1 mg/ml peptide
  depolarization of mitochondria in cells: maximal depolarization of mitochondria
[7]
  lysosome integrity and pH gradient across lysosomal membranes (Lysotracker fluorescence intensity): No change
Rat liver mitochondria
  concentration stimulating mitochondrial respiration up to the level of fully uncoupled respiration: higher than 100 nM
[5]; 100 mV
  single-channel conductance: 150 pS
[5]; symmetrical addition
  concentration required to observe single channels, relative to gA: much higher (approx. by two orders of magnitude)
